Reference: article PMC7606612, “Identification of HMGA2 inhibitors by AlphaScreen-based ultra-high-throughput screening assays” (Scientific Reports, 2020)

How the values were obtained:
BTSC#83 = test: Growth curves (CellTiter), BTSC#83; assay type: cell-based; conditions: up to 200 μM
Description: BTSC#83 and BTSC#30p and their culture conditions have been described. For growth curves, suspension cultures were mechanically disaggregated and filtered through 37 µm filters (StemCell Technologies, Vancouver, Canada) in order to obtain bona fide single-cell suspension. […] Cell growth was assayed at the indicated time using the CellTiter Assay System (Promega). The growth conditions of 8505c anaplastic thyroid carcinoma cells and mouse Embryonic Fibroblasts (MEFs) knock-out for HMGA1, HMGA2, and HMGA1/A2 double mutant have been described previously[42],[64]. P values were calculated by using two-way ANOVA followed by Sidak’s multiple comparison test.

HMGA2-DNA interactions = biological target: T1, HMGA2-DNA interactions (Mus musculus, UniProt P52927); test: LANCE TR-FRET secondary assay of HMGA2 binding to FL814; parameters: species or system mammalian; concentration or dose not given beside the values; conditions: cherry picked primary hits
T1 construct: made in house
T1 sequence (P52927 2-108 limits assumed): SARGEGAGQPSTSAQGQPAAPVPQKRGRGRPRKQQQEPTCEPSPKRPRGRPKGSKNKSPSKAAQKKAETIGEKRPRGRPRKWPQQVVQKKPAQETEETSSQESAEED
Description: In this study, we also developed a LANCE time-resolved fluorescence energy transfer (TR-FRET) assay as a secondary assay for our screening. The His-tagged HMGA2 and biotinylated oligomer FL814 were linked to Europium-labeled anti-6 × His antibody and APC-labeled streptavidin, respectively. A series of DNA binding studies were performed to determine the optimal conditions for the secondary Assay (Fig. S2). After these experiments, 12.5 nM of FL814 and 62.5 nM of HMGA2 were chosen for the assay, which is the same for the primary assay. The assay tolerated up to 0.25% DMSO without any significant change in signal (Fig. S2c). For a counterscreen assay to exclude those compounds that nonspecifically bind to the protein surface, an AlphaScreen assay of H4 peptide binding to bromodomain-containing protein 4 (BRD4) was adopted (Fig. S2e). Since we are looking for compounds with anti-metastasis or anti-obesity activities, compounds with high levels of cytotoxicity are undesirable. […] Furthermore, potential DNA-binding compounds, i.e., DNA intercalators, minor groove binders, and DNA alkylating agents, can be identified by analyzing their chemical structures and will be excluded as well.
Using a Labcyte Echo 555 acoustic dispenser 5 nL of DMSO were added to columns 1–4 and 45–48 of a white 1536 well plate, while 5 nL of 2 mM compounds in DMSO were added to columns 5–44. Using a Beckman BioRAPTR FRD bulk reagent dispenser 1 µL of assay buffer (10 mM Tris, 300 mM NaCl and 0.005% Tween 20) was added to columns 1 and 2. Next, 1 µL of assay buffer containing 125 nM HMGA2 was added to columns 3–48 with a Beckman BioRAPTR FRD bulk reagent dispenser. Finally, 1 µL of assay buffer containing 25 nM FL814 was added to every well of the plate using a Beckman BioRAPTR FRD bulk reagent dispenser. The plate was then centrifuged at 200 × g for 1 min. After 30 min at room temperature 1 µL of assay buffer containing 250 nM LANCE Ultra ULight-anti-6xHIS and 1 µL of assay buffer containing 12 nM LANCE Eu-W1024 Streptavidin was dispensed into every well using a Beckman BioRAPTR FRD bulk reagent dispenser. The plates were then centrifuged at 200 × g for 1 min. After 1 h at room temperature the plates were read on a Perkin Elmer Envision multimode plate reader in TR-FRET mode (excitation @340 nm, first emission at @665 nm, second emission at 615 nm).

BTSC#30p [1] = test: Light microscopy of morphology / differentiation, BTSC#30p; assay type: cell-based; conditions: 100 µM and 200 µM, 6 days
BTSC#30p [2] = test: Western blotting and qRT-PCR expression analysis, BTSC#30p; assay type: cell-based
Description: The single-cell suspension was obtained by mechanical disaggregation of the spheres and total proteins were extracted 48 h later, as previously described. After separation by SDS–polyacrylamide gel electrophoresis, proteins were blotted on nitrocellulose membranes (GE Healthcare Europe Gmb) and hybridized with the following antibodies: anti-HMGA1, anti-HMGA2 (Genetex) or affinity-purified anti-HMGA2, anti-α-actin (SantaCruz Biotechnologies). The single-cell suspension was obtained by mechanical disaggregation of the spheres and RNA was extracted 48 h later, by using Direct-zol RNA MiniPrep (Zymo Research). One μg of RNA was retrotranscribed, by using QuantiTect® Reverse Transcription Kit (Qiagen) and qRT-PCR was performed as described. The 2^–ΔΔCt formula was used to calculate the differential gene expression.

SMILES: Cc1ccc(C(=O)Nc2ccc(S(=O)(=O)O)c3cc(S(=O)(=O)O)cc(S(=O)(=O)O)c23)cc1NC(=O)c1cccc(NC(=O)Nc2cccc(C(=O)Nc3cc(C(=O)Nc4ccc(S(=O)(=O)O)c5cc(S(=O)(=O)O)cc(S(=O)(=O)O)c45)ccc3C)c2)c1 [suramin]
- cell growth (BTSC#83): did not significantly affect the cell growth
- inhibition of HMGA2-DNA interactions (HMGA2-DNA interactions): ≥ 50%
- cell morphology / induction of differentiation (BTSC#30p [1]): acquire flat epithelial morphology
- ID2 expression (BTSC#30p [2]; 100 μM for 48 h): induces reduction in ID2 expression
- expression of HMGA1 (BTSC#30p [2]; Western blotting and qRT-PCR): slightly reduced
- expression of HMGA2 (BTSC#30p [2]; Western blotting and qRT-PCR): slightly reduced
- expression of SNAIL (BTSC#30p [2]; qRT-PCR, 100 µM for 48 h): significantly reduced
- expression of ID2 (BTSC#30p [2]; qRT-PCR, 100 µM for 9 days): significantly reduced
- expression of MSI1 (BTSC#30p [2]; qRT-PCR, 100 µM for 9 days): significantly reduced
- expression of OLIG2 (BTSC#30p [2]; qRT-PCR, 100 µM for 9 days): increased
